pIC50, pKd: −log10 of the molar value. In brackets after ≈: the same amount, converted by molar mass. Values belong to the compound of their own block, whether it stands above or below them. Activity calls are given as the source filed them. No cut-off for these calls is given here.
Tests used:
[1] = target: T1, Bromodomain-containing protein 4 (Homo sapiens, UniProt O60885); assay: Binding affinity to BRD4 BD1 (unknown origin) expressed in Escherichia coli BL21 (DE3) at 1:1 protein:compound ratio by MST assay
[2] = target: T1, Bromodomain-containing protein 4; assay: Binding affinity to BRD4 BD2 (unknown origin) expressed in Escherichia coli BL21 (DE3) at 1:1 protein:compound ratio by MST assay
[3] = Selectivity ratio of Kd for binding affinity to BRD4 BD2 (unknown origin) by MST assay to Kd for binding affinity to BRD4 BD1 (unknown origin) by MST assay
[4] = target: T1, Bromodomain-containing protein 4; assay: Binding affinity to BRD4 BD1 (unknown origin) expressed in Escherichia coli BL21 (DE3) by ITC assay
[5] = target: T1, Bromodomain-containing protein 4; assay: Binding affinity to BRD4 BD2 (unknown origin) expressed in Escherichia coli BL21 (DE3) by ITC assay
[6] = Selectivity ratio of Kd for binding affinity to BRD4 BD2 (unknown origin) by ITC assay to Kd for binding affinity to BRD4 BD1 (unknown origin) by ITC assay
[7] = target: T1, Bromodomain-containing protein 4; assay: Binding affinity to BRD4 BD1 (unknown origin) assessed as change in enthalpy by ITC method
[8] = target: T1, Bromodomain-containing protein 4; assay: Binding affinity to BRD4 BD1 (unknown origin) assessed as change in entropy by ITC method
[9] = target: T1, Bromodomain-containing protein 4; assay: Binding affinity to BRD4 BD1 (unknown origin) assessed as change in gibbs free energy by ITC method
[10] = target: T1, Bromodomain-containing protein 4; assay: Inhibition of BRD4 BD1 (unknown origin) incubated for 15 mins by HTRF method
[11] = target: T1, Bromodomain-containing protein 4; assay: Inhibition of BRD4 BD2 (unknown origin) incubated for 15 mins by HTRF method
[12] = target: T2, Bromodomain-containing protein 3 (Homo sapiens, UniProt Q15059); assay: Inhibition of BRD3 BD1 (unknown origin) incubated for 15 mins by HTRF method
[13] = target: T2, Bromodomain-containing protein 3; assay: Inhibition of BRD3 BD2 (unknown origin) incubated for 15 mins by HTRF method
[14] = target: T3, Bromodomain-containing protein 2 (Homo sapiens, UniProt P25440); assay: Inhibition of BRD2 BD1 (unknown origin) incubated for 15 mins by HTRF method
[15] = target: T3, Bromodomain-containing protein 2; assay: Inhibition of BRD2 BD2 (unknown origin) incubated for 15 mins by HTRF method
[16] = target: T4, Bromodomain testis-specific protein (Homo sapiens, UniProt Q58F21); assay: Inhibition of BRDT BD1 (unknown origin) incubated for 15 mins by HTRF method
[17] = target: T4, Bromodomain testis-specific protein; assay: Inhibition of BRDT BD2 (unknown origin) incubated for 15 mins by HTRF method
[18] = Selectivity ratio of IC50 for inhibition of BRD4 BD2 (unknown origin) to IC50 for inhibition of BRD4 BD1 (unknown origin)
[19] = Selectivity ratio of IC50 for inhibition of BRD3 BD2 (unknown origin) to IC50 for inhibition of BRD3 BD1 (unknown origin)
[20] = Selectivity ratio of IC50 for inhibition of BRD2 BD2 (unknown origin) to IC50 for inhibition of BRD2 BD1 (unknown origin)
[21] = Selectivity ratio of IC50 for inhibition of BRDT BD2 (unknown origin) to IC50 for inhibition of BRDT BD1 (unknown origin)
Microglia = assay: Antiinflammatory activity against LPS induced neonatal rat cerebral cortex microglia by immunofluorescence assay; type: functional, cell-based
[22] = Solubility in water by HPLC analysis; type: physicochemical
[23] = Stability in rat liver microsomes assessed as half life; type: ADME, Microsome
[24] = Stability in rat liver microsomes assessed as intrinsic clearance; type: ADME, Microsome; details: read-out: CLH
[25] = Lipophilicity, logD of compound at pH 7.4 by LC-MS/MS based shake bottle method; type: physicochemical; details: buffer
[26] = Unbound drug level in ICR mouse brain incubated for 5 hrs by equilibrium dialysis method; type: ADME, tissue-based
[27] = Free maximum concentration of drug in ICR mouse brain; type: ADME, tissue-based
[28] = Cmax in Sprague-Dawley rat at 5 mg/kg, iv measured upto 25 hrs by LC-MS/MS analysis; type: ADME, organism-based; details: in vivo
[29] = Half life in Sprague-Dawley rat at 5 mg/kg, iv measured upto 25 hrs by LC-MS/MS analysis; type: ADME, organism-based; details: in vivo
[30] = Mean residence time in Sprague-Dawley rat at 5 mg/kg, iv measured upto 25 hrs by LC-MS/MS analysis; type: ADME, organism-based; details: in vivo
[31] = Cmax in Sprague-Dawley rat at 25 mg/kg, ip measured upto 25 hrs by LC-MS/MS analysis; type: ADME, organism-based; details: in vivo
[32] = Tmax in Sprague-Dawley rat at 25 mg/kg, ip measured upto 25 hrs by LC-MS/MS analysis; type: ADME, organism-based; details: in vivo
[33] = Half life in Sprague-Dawley rat at 25 mg/kg, ip measured upto 25 hrs by LC-MS/MS analysis; type: ADME, organism-based; details: in vivo
[34] = Mean residence time in Sprague-Dawley rat at 25 mg/kg, ip measured upto 25 hrs by LC-MS/MS analysis; type: ADME, organism-based; details: in vivo
[35] = Bioavailability in Sprague-Dawley rat at 25 mg/kg, ip measured upto 25 hrs by LC-MS/MS analysis; type: ADME, organism-based; details: in vivo
[36] = Cmax in Sprague-Dawley rat at 25 mg/kg, po measured upto 25 hrs by LC-MS/MS analysis; type: ADME, organism-based; details: in vivo
[37] = Tmax in Sprague-Dawley rat at 25 mg/kg, po measured upto 25 hrs by LC-MS/MS analysis; type: ADME, organism-based; details: in vivo
[38] = Half life in Sprague-Dawley rat at 25 mg/kg, po measured upto 25 hrs by LC-MS/MS analysis; type: ADME, organism-based; details: in vivo
[39] = Mean residence time in Sprague-Dawley rat at 25 mg/kg, po measured upto 25 hrs by LC-MS/MS analysis; type: ADME, organism-based; details: in vivo
[40] = Oral bioavailability in Sprague-Dawley rat at 25 mg/kg measured upto 25 hrs by LC-MS/MS analysis; type: ADME, organism-based; details: in vivo
[41] = Cmax in C57BL/6 mouse blood at 5 mg/kg, iv measured upto 25 hrs by LC-MS/MS analysis; type: ADME, organism-based
[42] = Cmax in C57BL/6 mouse brain at 5 mg/kg, iv measured upto 25 hrs by LC-MS/MS analysis; type: ADME, organism-based
[43] = Cmax in C57BL/6 mouse spinal cord at 5 mg/kg, iv measured upto 25 hrs by LC-MS/MS analysis; type: ADME, organism-based
[44] = Tmax in C57BL/6 mouse brain at 5 mg/kg, iv measured upto 25 hrs by LC-MS/MS analysis; type: ADME, organism-based
[45] = Tmax in C57BL/6 mouse spinal cord at 5 mg/kg, iv measured upto 25 hrs by LC-MS/MS analysis; type: ADME, organism-based
Mus musculus [46] = assay: (§1) Anti-inflammatory activity in complete Freund's adjuvant/MOG (35 to 55 residues)/pertussis toxin-induced experimental autoimmune encephalomyelitis C57BL/6 mouse model assessed as reduction in clinical scores at 30 to 60 mg/kg, ip qd administered 6 days post immunization and measured every 3 days for 28 days post immunization; type: functional, organism-based; details: dose 30-60 mg/kg, time 22.0 day
Mus musculus [47] = assay: as §1, with “change” for “reduction”, “cumulative” for “clinical”; type: functional, organism-based; details: dose 30-60 mg/kg, time 22.0 day
[48] = Toxicity in C57BL/6 mouse model of experimental autoimmune encephalomyelitis assessed as body weight loss at 30 to 60 mg/kg, ip administered 6 days post immunization and measured every 3 days for 28 days post immunization; type: organism-based; details: in vivo, 528 h, dose 30-60 mg/kg, time 22 day
[49] = Toxicity in C57BL/6 mouse model of experimental autoimmune encephalomyelitis assessed as animal death at 30 to 60 mg/kg, ip administered 6 days post immunization and measured every 3 days for 28 days post immunization; type: organism-based; details: in vivo, 144 h, dose 30-60 mg/kg, time 6 day
Mus musculus [50] = assay: as §1, with “TNF-alpha level” for “clinical scores”; type: functional, organism-based; details: dose 30-60 mg/kg, time 22.0 day
Mus musculus [51] = assay: as §1, with “IL-6 level” for “clinical scores”; type: functional, organism-based; details: dose 30-60 mg/kg, time 22.0 day
Mus musculus [52] = assay: (§2) Anti-inflammatory activity in complete Freund's adjuvant/MOG (35 to 55 residues)/pertussis toxin-induced experimental autoimmune encephalomyelitis C57BL/6 mouse model assessed as appearance of normal myelin structure at 30 to 60 mg/kg, ip qd administered 6 days post immunization and measured every 3 days for 28 days post immunization by Luxol fast blue staining based bright field fluorescence microscopic analysis; type: functional, organism-based; details: dose 30-60 mg/kg, time 22.0 day
Mus musculus [53] = assay: as §2, with “as” for “as appearance of normal”, “density” for “structure”, “at” for “at 30 to”; type: functional, organism-based; details: time 22.0 day
[54] = target: T1, Bromodomain-containing protein 4; assay: Binding affinity to BRD4 BD2 (unknown origin) assessed as change in enthalpy by ITC method
[55] = target: T1, Bromodomain-containing protein 4; assay: Binding affinity to BRD4 BD2 (unknown origin) assessed as change in entropy by ITC method
[56] = target: T1, Bromodomain-containing protein 4; assay: Binding affinity to BRD4 BD2 (unknown origin) assessed as change in gibbs free energy by ITC method

T3 sequence (P25440 whole entry): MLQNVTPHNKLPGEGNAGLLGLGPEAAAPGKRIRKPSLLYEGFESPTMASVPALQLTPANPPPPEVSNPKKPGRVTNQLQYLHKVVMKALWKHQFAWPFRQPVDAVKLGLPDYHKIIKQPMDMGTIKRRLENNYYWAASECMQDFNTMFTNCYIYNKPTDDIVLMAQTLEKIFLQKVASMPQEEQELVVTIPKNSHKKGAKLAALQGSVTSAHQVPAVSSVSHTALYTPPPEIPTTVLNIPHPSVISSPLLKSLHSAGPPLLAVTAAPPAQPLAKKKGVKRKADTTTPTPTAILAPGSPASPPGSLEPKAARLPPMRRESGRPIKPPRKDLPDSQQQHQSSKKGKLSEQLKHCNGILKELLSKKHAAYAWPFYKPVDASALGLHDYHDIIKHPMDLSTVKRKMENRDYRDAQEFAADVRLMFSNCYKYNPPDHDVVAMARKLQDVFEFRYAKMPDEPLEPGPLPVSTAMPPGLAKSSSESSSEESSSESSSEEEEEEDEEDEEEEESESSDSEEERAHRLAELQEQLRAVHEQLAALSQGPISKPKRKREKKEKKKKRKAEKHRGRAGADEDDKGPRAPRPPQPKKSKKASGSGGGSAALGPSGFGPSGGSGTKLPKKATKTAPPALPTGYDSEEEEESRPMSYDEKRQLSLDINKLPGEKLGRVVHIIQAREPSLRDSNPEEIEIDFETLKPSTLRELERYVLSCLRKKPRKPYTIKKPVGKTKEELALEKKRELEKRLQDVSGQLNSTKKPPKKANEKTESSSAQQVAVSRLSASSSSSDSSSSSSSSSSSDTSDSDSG
T2 sequence (Q15059 whole entry): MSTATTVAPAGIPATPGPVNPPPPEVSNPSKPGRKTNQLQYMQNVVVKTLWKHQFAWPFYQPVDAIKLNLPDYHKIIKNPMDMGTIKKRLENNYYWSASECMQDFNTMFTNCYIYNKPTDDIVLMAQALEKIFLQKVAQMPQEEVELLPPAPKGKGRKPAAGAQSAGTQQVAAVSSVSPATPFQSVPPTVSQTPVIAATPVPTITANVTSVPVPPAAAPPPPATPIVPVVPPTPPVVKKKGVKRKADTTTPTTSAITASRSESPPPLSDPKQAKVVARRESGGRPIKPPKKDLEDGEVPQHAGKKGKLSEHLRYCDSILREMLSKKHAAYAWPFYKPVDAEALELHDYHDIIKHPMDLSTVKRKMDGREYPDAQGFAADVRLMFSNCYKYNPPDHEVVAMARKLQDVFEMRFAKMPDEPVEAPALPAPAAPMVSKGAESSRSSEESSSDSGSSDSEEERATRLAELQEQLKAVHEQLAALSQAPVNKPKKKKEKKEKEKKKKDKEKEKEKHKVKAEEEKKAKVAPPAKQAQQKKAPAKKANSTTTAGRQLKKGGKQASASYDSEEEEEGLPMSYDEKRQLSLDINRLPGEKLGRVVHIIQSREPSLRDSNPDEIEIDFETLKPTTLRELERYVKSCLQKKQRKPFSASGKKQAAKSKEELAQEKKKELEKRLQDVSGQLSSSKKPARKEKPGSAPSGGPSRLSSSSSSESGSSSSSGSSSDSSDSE

Compound: Cc1nn(CC2CC2)c(C)c1-c1cncc(-c2ccnc3nc[nH]c23)c1
pKd [1]: 6.64
pKd [2]: 4.85
Selectivity ratio [3]: 60
pKd [4]: 6.27
pKd [5]: 4.68
Selectivity ratio [6]: 38
deltaH [7]: -15.6 kcal/mol
TdeltaS [8]: 7.1 kcal/mol
deltaG [9]: -8.55 kcal/mol
pIC50 [10]: 6.75
pIC50 [11]: 5.32
pIC50 [12]: 6.74
pIC50 [13]: 5.71
pIC50 [14]: 6.30
pIC50 [15]: 5.68
pIC50 [16]: 5.32
pIC50 [17]: 5.52
Ratio IC50 [18]: 28
Ratio IC50 [19]: 11
Ratio IC50 [20]: 4
Ratio IC50 [21]: 0.6
Activity (Microglia): Active
solubility [22]: 760 µg/mL (≈ 2210 µM)
half-life [23]: 3.7 h
microsomal CLint [24]: 3.2 µL/min/mg
logD [25]: 2.31
fraction unbound at 5 h [26]: 0.979
fCmax [27]: 170 nM
Cmax [28]: 17.2 µM
half-life [29]: 3.56 h
MRT [30]: 4.46 h
Cmax [31]: 89.4 µM
Tmax [32]: 1 h
half-life [33]: 3.53 h
MRT [34]: 1.74 h
bioavailability [35]: 121%
Cmax [36]: 7.15 µM
Tmax [37]: 0.25 h
half-life [38]: 6.31 h
MRT [39]: 8.93 h
bioavailability [40]: 22%
Cmax [41]: 17.2 µM
Cmax [42]: 7.91 µM
Cmax [43]: 3 µM
Tmax [44]: 1 h
Tmax [45]: 1 h
Activity (Mus musculus [46]): Active
Activity (Mus musculus [47]): Active
Activity [48]: Non-Toxic
Activity [49]: Non-Toxic
Activity (Mus musculus [50]): Active
Activity (Mus musculus [51]): Active
Activity (Mus musculus [52]): Active
Activity (Mus musculus [53]): Active
deltaH [54]: -5.84 kcal/mol
TdeltaS [55]: -0.533 kcal/mol
deltaG [56]: -6.37 kcal/mol

pKd [1]: 6.00
pKd [2]: 4.89
Selectivity ratio [3]: 13
Compound: Cc1nn(CC2CCCC2)c(C)c1-c1cncc(-c2ccnc3nc[nH]c23)c1

pKd [1]: 6.60
pKd [2]: 4.89
Selectivity ratio [3]: 51
Compound: Cc1nn(CC2CCC2)c(C)c1-c1cncc(-c2ccnc3nc[nH]c23)c1

From ChEMBL document CHEMBL5528022, “Discovery of a brain-permeable bromodomain and extra terminal domain (BET) inhibitor with selectivity for BD1 for the treatment of multiple sclerosis” (Eur J Med Chem, 2024)
